Results on 7 molecules are retold here after article PMC10590056, “Design and synthesis of cabotegravir derivatives bearing 1,2,3-triazole and evaluation of anti-liver cancer activity” (Frontiers in Pharmacology, 2023).

Several values for one entry are separate records, joined by “and”; a condition that tells them apart may be missing. Identical values can stand only once. Like-named read-outs stand apart in the source and are kept apart here.

Assay [1] relates to HepG2 cells. As to conditions: cited from earlier work.
Assay [2] deals with wild-type lung cancer cells (A549). On the set-up: method as in Mao L. F. et al., 2020. As to conditions: A549, stronger effect than icotinib; ref Mao L. F. et al., 2020; cited from earlier work.
For assay [3], the system named is mutant lung cancer cells (PC-9). On the set-up: method as in Mao L. F. et al., 2020. As to conditions: PC-9, stronger effect than icotinib; ref Mao L. F. et al., 2020; cited from earlier work.
The next assay concerns MCF-7 cells. Briefly: MTT assay for cell proliferation, MCF-7. The class given is cell-based. As to conditions: for Inhibition rate (16μM), 48 h, MCF-7: preliminary screening, MCF-7, 16 μM, mean±SD, unit not given. On the set-up: key to Inhibitory rate / Inhibition rate: inhibition rate = 1 - mean A490 sample/mean A490 control (fraction). The method, boiled down:
(§1)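 Proliferation read-out is MTT reduction (4 h) after 48 h treatment with KJ-5 or KJ-12 across 0, 1, 2, 4, 8, 16 and 32 μM. Cultures in 10% FBS DMEM, 37 °C, plated at 10^5 cells/mL; A490 of DMSO-dissolved formazan compared with untreated control.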
A general note: Tetrazolium dyes change colour on reduction, which living cells bring about.

Assay [4] concerns HepG2 cells. Nature of the assay: MTT assay for cell proliferation and cytotoxicity, HepG2. The class given is cell-based. On the set-up: key to Inhibitory rate: inhibition rate = 1 - mean A490 sample/mean A490 control (fraction). As to conditions: for IC50: HepG2, 48 h, MTT; for Inhibitory rate / ODtreated/ODcontrol: HepG2, fraction, per experiment; for Inhibition rate (16μM), 48 h, HepG2: preliminary screening, HepG2, 16 μM, mean±SD, unit not given. The procedure, abridged: as §1

The test system of another assay is HeLa cells. Briefly: MTT assay for cell proliferation, HeLa. The class given is cell-based. More on the design: key to Inhibitory rate: inhibition rate = 1 - mean A490 sample/mean A490 control (fraction). As to conditions: Hela; for Inhibitory rate / ODtreated/ODcontrol: fraction, per experiment; for Inhibition rate (16μM), 48 h, Hela: preliminary screening, mean±SD, unit not given. The procedure, abridged:
as §1

The subject of the next assay is KYSE-30 cells. Briefly: MTT assay for cell proliferation, KYSE-30. In kind it is cell-based. More on the design: key to Inhibitory rate: inhibition rate = 1 - mean A490 sample/mean A490 control (fraction). As to conditions: for Inhibitory rate: KYSE-30, given as fraction; for Inhibition rate (16μM), 48 h, KYSE-30: preliminary screening, KYSE-30, 16 μM, mean±SD, unit not given. The procedure, abridged: as §1

[5] abbreviates: MCF-7, fraction, per experiment.
The mark [6] stands for this setting: given as fraction, second of three experiments.
Where [7] appears, read: given as fraction, third of three experiments.
[8] abbreviates: KYSE-30, first of three experiments.
[9] abbreviates: KYSE-30, second of three experiments.
Setting [10] is: KYSE-30, third of three experiments.

With `Cc1c(C(=O)Nc2ccc(Oc3cccc4[nH]ccc34)c(F)c2)nnn1-c1ccc(F)cc1` [compound 3], the half-inhibitory concentration (IC50) – broadly, the point on the concentration scale where inhibition reaches its midpoint – in the assay with HepG2 cells [1] (ref Wang L. et al., 2018, Chen et al., 2022b, read-out: IC50 for HepG2 cells) is 2.03 µM.
For the molecule `O=C(NCc1cn(-c2ccc(I)cc2)nn1)Nc1ccc(Cl)c(C(F)(F)F)c1` [compound 4], the half-maximal inhibitory concentration (IC50) with HepG2 cells [1] (ref Chen et al., 2022a, Oekchuae et al., 2022, read-out: IC50 for HepG2 cells) is 5.57 µM.
In the case of `Clc1cccc(-n2cc(-c3cccc(Nc4ncnc5cc6c(cc45)OCCOCCOCCO6)c3)nn2)c1` [compound 5], the “Inhibitory effect on A549 cells” value in assay [2] is given as “excellent inhibitory effects”. Further, the “Inhibitory effect on PC-9 cells” value in assay [3] is listed as “excellent inhibitory effects”.
With `COc1c2n(cc(C(=O)Nc3cccc(-c4cn(-c5ccccc5C)nn4)c3)c1=O)C[C@H]1OC[C@H](C)N1C2=O` [KJ-3], the Inhibitory rate in the assay with MCF-7 cells (setting [5]) is 0.4113; in the assay on MCF-7 cells (setting [6]), 0.4254; with HepG2 cells [4], 0.4219 and 0.4728 and 0.4157; in the assay on HeLa cells it was 0.3938 and 0.4133 and 0.3211; with KYSE-30 cells (first of three experiments) it was 0.3903; with KYSE-30 cells (second of three experiments) it was 0.2997. Further, in the assay with KYSE-30 cells (third of three experiments), the Inhibitory rate is 0.2805. The ODtreated/ODcontrol was 0.5887 in the assay with MCF-7 cells (setting [5]); 0.5746 in the assay with MCF-7 cells (second of three experiments); 0.6695 in the assay on MCF-7 cells (third of three experiments); 0.5781 and 0.5272 and 0.5843 in the assay with HepG2 cells [4]; 0.6062 and 0.5867 and 0.6789 in the assay with HeLa cells; 0.6097 in the assay on KYSE-30 cells (setting [8]). The ODtreated/ODcontrol was found to be 0.7003 in the assay on KYSE-30 cells (setting [9]) and 0.7195 in the assay on KYSE-30 cells (setting [10]). The same molecule displayed an Inhibition rate with MCF-7 cells (setting [7]) of 0.3305. In addition, the “Inhibition rate (16μM), 48 h, MCF-7” value in the assay on MCF-7 cells was found to be 38.91±5.12. The same molecule gave a half-inhibitory concentration (IC50) in the assay with HepG2 cells [4] of 19.5 ± 0.5 µM. Besides, the “Inhibition rate (16μM), 48 h, HepG2” value with HepG2 cells [4] came to 43.68±3.13. The “Inhibition rate (16μM), 48 h, Hela” value with HeLa cells is 37.61±4.86. For the same molecule, in the assay on KYSE-30 cells, the “Inhibition rate (16μM), 48 h, KYSE-30” value is 32.35±5.86.
Take `COc1c2n(cc(C(=O)Nc3cccc(-c4cn(-c5cccc(Cl)c5)nn4)c3)c1=O)CC1OCC(C)N1C2=O` (stereo not drawn) [KJ-17]: the Inhibitory rate is 0.5766 with MCF-7 cells (setting [5]); 0.4958 in the assay on MCF-7 cells (setting [6]); 0.6231 and 0.6364 and 0.626 in the assay on HepG2 cells [4]; 0.5384 and 0.6161 and 0.6258 in the assay on HeLa cells; 0.5172 in the assay on KYSE-30 cells (first of three experiments); 0.6074 in the assay with KYSE-30 cells (second of three experiments). This molecule had an Inhibitory rate with KYSE-30 cells (third of three experiments) of 0.5319. Besides, the ODtreated/ODcontrol in the assay on MCF-7 cells (setting [5]) is 0.4234; in the assay with MCF-7 cells (second of three experiments) it was 0.5042; with MCF-7 cells (third of three experiments), 0.3996; in the assay with HepG2 cells [4] it was 0.3769 and 0.3636 and 0.374; with HeLa cells, 0.4616 and 0.3839 and 0.3742; in the assay with KYSE-30 cells (setting [8]), 0.4828. Besides, the ODtreated/ODcontrol with KYSE-30 cells (setting [9]) was 0.3926; with KYSE-30 cells (setting [10]), 0.4681. Moreover, the Inhibition rate in the assay on MCF-7 cells (setting [7]) came out at 0.6004. In addition, in the assay with MCF-7 cells, the “Inhibition rate (16μM), 48 h, MCF-7” value was determined as 55.76±5.48. Besides, it took 9.83 ± 0.85 µM to reach half-maximal inhibition in the assay on HepG2 cells [4] (IC50). For the same molecule, the “Inhibition rate (16μM), 48 h, HepG2” value with HepG2 cells [4] is 62.85±0.70. The “Inhibition rate (16μM), 48 h, Hela” value with HeLa cells was 59.34±4.79. For the same molecule, the “Inhibition rate (16μM), 48 h, KYSE-30” value in the assay on KYSE-30 cells amounted to 55.22±4.84.
As to `C[C@]12CC[C@@H]3c4ccc(O)cc4CC[C@H]3[C@@H]1CC[C@@]2(O)c1cn(CC(=O)c2ccc(Cl)cc2)nn1` [compound 2], the IC50 in the assay on HepG2 cells [1] (ref Queiroz et al., 2019, read-out: IC50 for HepG2 cells) is 17.8 µM.
Take `COc1ccc(CN(C(=O)Cn2cc(COc3ccc4c(C)cc(=O)oc4c3)nn2)c2cc(OC)c(OC)c(OC)c2)cc1` [compound 1]: the IC50 in the assay with HepG2 cells [1] (ref Fu et al., 2019, read-out: IC50 for the inhibition of HepG2 cells) is 1.71 µM.
